{"source": "patent US9289398B2", "about": "“Methods for the production of functional protein from DNA having a nonsense mutation and the treatment of disorders associated therewith” (PTC Therapeutics, Inc., priority 2006, dated 2016)", "assay_type_in_all_cases": "in vivo, human", "key": {"[1]": {"test": "Plasma exposure, additional DMD Phase 2 study", "protocol": "3-[5-(2-fluoro-phenyl)-[1,2,4]oxadiazol-3-yl]-benzoic acid was administered orally for 28 days at dose levels of 4, 4, 8 mg/kg (low dose); 10, 10, 20 mg/kg (mid dose); and 20, 20, 40 mg/kg (high dose) after breakfast, lunch, and dinner, respectively. 26 boys (ages: 5-13 years; stop codons: 15 UGA, 6 UAG, 5 UAA; baseline serum CK: 8,645-49,500 IU; steroid use: 19/26) completed 3-[5-(2-fluoro-phenyl)-[1,2,4]oxadiazol-3-yl]-benzoic acid at the low (n=6) or mid (n=20) dose levels. […] Compliance was >98% for both dose levels. Day 1 and Day 28 PK indicate stable plasma exposures over time; however, exposures were lower than in 3-[5-(2-fluoro-phenyl)-[1,2,4]oxadiazol-3-yl]-benzoic acid-treated healthy adult volunteers and cystic fibrosis patients. […] Relative to baseline, post-treatment increases in in vivo dystrophin expression occurred in 4/6 (67%) (90% CI 27-94%) and 10/20 (50%) (90% C1-30-70%) boys at low and mid doses, respectively.\n3-[5-(2-fluoro-phenyl)[1,2,4]oxadiazol-3-yl]-benzoic acid safely induces full-length dystrophin expression in vitro and in vivo and decreases serum CK levels in boys with nonsense-mutation-mediated DMD. […] Evaluation at the high dose level in 12 additional boys is ongoing."}, "[2]": {"test": "Pharmacokinetics, CF Phase 2 preliminary analysis", "conditions": "for Cmax / AUC(0-t): both sexes, human, in vivo, oral; for AUC(0-t): read-out: AUC0-24", "text": "3-[5-(2-Fluoro-phenyl)-[1,2,4]oxadiazol-3-yl]-benzoic acid was provided in a formulation described herein.\nThe 3-[5-(2-fluoro-phenyl)-[1,2,4]oxadiazol-3-yl]-benzoic acid interim PK parameters from these 15 patients are described in Table 17."}, "[3]": {"test_system": "serum CK", "test": "Serum CK levels, DMD Phase 2", "conditions": "boys with nonsense-mutation-mediated DMD, 28 days", "protocol": "Serum CK activity is assessed using a commercially available NADH-linked kinetic assay (Diagnostic Chemicals Ltd., Oxford, Conn.). Serum CK levels are measured prior to treatment, on day 1 (prior to first dose), day 7, day 14, day 21, and day 27 during the treatment period, and on day 42 and day 56 after treatment. Serum CK is increased in Duchenne muscular dystrophy and therefore is a readily measurable diagnostic marker for the disease and may serve as a potential biomarker for the pharmacological activity of the drug (Mendell et al., 1989, New Eng. J. Med. 320(24):1592-1597).\n3-[5-(2-fluoro-phenyl)-[1,2,4]oxadiazol-3-yl]-benzoic acid was administered orally for 28 days at dose levels of 4, 4, 8 mg/kg (low dose); 10, 10, 20 mg/kg (mid dose); and 20, 20, 40 mg/kg (high dose) after breakfast, lunch, and dinner, respectively. 26 boys (ages: 5-13 years; stop codons: 15 UGA, 6 UAG, 5 UAA; baseline serum CK: 8,645-49,500 IU; steroid use: 19/26) completed 3-[5-(2-fluoro-phenyl)-[1,2,4]oxadiazol-3-yl]-benzoic acid at the low (n=6) or mid (n=20) dose levels. […] Compliance was >98% for both dose levels. Day 1 and Day 28 PK indicate stable plasma exposures over time; however, exposures were lower than in 3-[5-(2-fluoro-phenyl)-[1,2,4]oxadiazol-3-yl]-benzoic acid-treated healthy adult volunteers and cystic fibrosis patients. […]"}, "[4]": {"test": "Muscle strength (myometry) and timed function tests, DMD Phase 2", "conditions": "within the 28 days of treatment", "protocol": "Upper and lower extremity myometry are performed using a hand-held myometer following standardized procedures (Beenakker, 2001, Neuromuscul. Disord. 11(5):441-6; Hyde, 2001, Neuromuscul. Disord 11(2):165-70). It is recommended (depending on the subject's baseline functional status) that evaluated muscle groups include hip abductors, knee extensors, elbow flexors and extensors, and hand grip. Bilateral assessments can be done, and three measurements can be recorded from each muscle group on each side. These parameters are monitored prior to treatment, on the second to last day of treatment, and during a follow-up period after treatment. During the pre-treatment and treatment periods, the myometry procedures are performed prior to the muscle biopsy.\nTimed function tests include time taken to stand from a supine position, time taken to walk 10 meters, and time taken to climb 4 standard-sized stairs (Mendell, 1989, N. Engl. J. Med. 320(24):1592-7; Griggs, 1991, Arch. Neurol. 48(4):383-8). These parameters are monitored prior to treatment, on the second to last day of treatment, and during a follow-up period after treatment. During the pre-treatment and treatment periods, the timed function tests are performed prior to the muscle biopsy. […]"}, "[5]": {"test": "Safety, tolerability and compliance, DMD Phase 2 interim (6 patients)", "protocol": "3-[5-(2-Fluoro-phenyl)-[1,2,4]oxadiazol-3-yl]-benzoic acid is provided in a formulation described herein. Treatment is administered over 28 days for each treatment cohort. An initial cohort of patients are treated daily for 28 days with 3-[5-(2-fluoro-phenyl)-[1,2,4]oxadiazol-3-yl]-benzoic acid at a given dose level (e.g., 4-, 4-, and 8-mg/kg) TID. If the initial patients tolerate the drug, then a second cohort of patients receives 3-[5-(2-fluoro-phenyl)-[1,2,4]oxadiazol-3-yl]-benzoic acid at a higher dose level (e.g., 10-, 10-, and 20-mg/kg) TID. Thus, each patient receives a total of 84 doses of 3-[5-(2-fluoro-phenyl)-[1,2,4]oxadiazol-3-yl]-benzoic acid. After the end of 28 days of treatment, each patient is followed for an additional 28 days without treatment.\nSix patients were administered 3-[5-(2-fluoro-phenyl)-[1,2,4]oxadiazol-3-yl]-benzoic acid TID in a regimen consisting of 4 mg/kg with breakfast, 4 mg/kg with lunch, and 8 mg/kg with supper, for a total daily dose of 16 mg/kg. All patients were ambulatory, but had characteristic signs and symptoms of DMD, including some degree of muscle dysfunction and elevated serum CK concentrations. […] These adverse events included diarrhea in 1 patient; abdominal pain in 1 patient; and flatulence in 2 patients. […] Treatment compliance was good, with patients taking >95% of the intended total drug treatment for 28 days at the lower dose level."}, "[6]": {"conditions": "8 mg/kg, Cycle 1 lower dose 4, 4, 8 mg/kg, Day 1, N = 15, mean"}, "[7]": {"conditions": "8 mg/kg, Cycle 1 lower dose 4, 4, 8 mg/kg, Day 14, N = 15, mean"}, "[8]": {"conditions": "20 mg/kg, Cycle 2 higher dose 10, 10, 20 mg/kg, Day 1, N = 15, mean"}, "[9]": {"conditions": "20 mg/kg, Cycle 2 higher dose 10, 10, 20 mg/kg, Day 14, N = 15, mean"}, "[10]": {"conditions": "6 DMD patients, 4, 4, 8 mg/kg TID"}, "[11]": {"conditions": "of 6 DMD patients, 4, 4, 8 mg/kg TID"}}, "note": "Like-named read-outs stand apart in the source and are kept apart here."}
{"smiles": "O=C(O)c1cccc(-c2noc(-c3ccccc3F)n2)c1", "note": "[3-[5-(2-fluoro-phenyl)-[1,2,4]oxadiazol-3-yl]-benzoic acid]", "values": [{"measurement": "Plasma exposures over time", "setting": "[1]; Day 1 and Day 28 PK", "result": "stable"}, {"measurement": "Plasma exposures relative to treated healthy adult volunteers and cystic fibrosis patients", "setting": "[1]; boys with DMD", "result": "lower"}, {"measurement": "Plasma exposures relative to those associated with maximal preclinical activity", "setting": "[1]; low and mid dose levels", "result": "did not achieve plasma exposures associated with maximal preclinical activity"}, {"measurement": "Differences in PK parameters by gender", "setting": "[2]; 15 CF patients", "result": "No differences"}, {"measurement": "Cmin", "setting": "[2]; Cycle 1 lower dose 4, 4, 8 mg/kg, Day 1, N = 15, mean", "result": 1600, "unit": "ng/mL"}, {"measurement": "Cmin", "setting": "[2]; Cycle 1 lower dose 4, 4, 8 mg/kg, Day 14, N = 15, mean", "result": 1900, "unit": "ng/mL"}, {"measurement": "Cmin", "setting": "[2]; Cycle 2 higher dose 10, 10, 20 mg/kg, Day 1, N = 15, mean", "result": 5000, "unit": "ng/mL"}, {"measurement": "Cmin", "setting": "[2]; Cycle 2 higher dose 10, 10, 20 mg/kg, Day 14, N = 15, mean", "result": 6500, "unit": "ng/mL"}, {"measurement": "Cmax", "setting": "[2]; [6]", "result": 16000, "unit": "ng/mL"}, {"measurement": "AUC(0-t)", "setting": "[2]; [6]", "result": 145, "unit": "µg·h/mL"}, {"measurement": "Cmax", "setting": "[2]; [7]", "result": 13000, "unit": "ng/mL"}, {"measurement": "AUC(0-t)", "setting": "[2]; [7]", "result": 124, "unit": "µg·h/mL"}, {"measurement": "Cmax", "setting": "[2]; [8]", "result": 41000, "unit": "ng/mL"}, {"measurement": "AUC(0-t)", "setting": "[2]; [8]", "result": 435, "unit": "µg·h/mL"}, {"measurement": "Cmax", "setting": "[2]; [9]", "result": 36000, "unit": "ng/mL"}, {"measurement": "AUC(0-t)", "setting": "[2]; [9]", "result": 417, "unit": "µg·h/mL"}, {"measurement": "Serum CK levels during administration", "setting": "[3]", "result": "decreased significantly"}, {"measurement": "Changes in muscle strength and timed functions", "setting": "[4]", "result": "small and not significant"}, {"measurement": "Discontinuation of treatment due to an adverse event", "setting": "[5]; 6 DMD patients", "result": "No patient discontinued treatment"}, {"measurement": "Physical examinations, vital sign measurements, electrocardiograms", "setting": "[5]; [10]", "result": "no safety concerns"}, {"measurement": "Serum liver enzymes, bilirubin, creatinine, blood urea nitrogen", "setting": "[5]; [10]", "result": "No clinically significant elevations"}, {"measurement": "Serious drug-related adverse events", "setting": "[5]; 6 DMD patients, 4, 4, 8 mg/kg TID, 28 days", "result": "No serious drug-related adverse events"}, {"measurement": "Severity of potentially drug-related adverse events", "setting": "[5]; 6 DMD patients, 4, 4, 8 mg/kg TID, preliminary", "result": "mild"}, {"measurement": "Abdominal pain, number of patients", "setting": "[5]; [11]", "result": 1}, {"measurement": "Diarrhea, number of patients", "setting": "[5]; [11]", "result": 1}, {"measurement": "Flatulence, number of patients", "setting": "[5]; [11]", "result": 2}]}
